Experiments:
Type in all cases: physicochemical
Conditions in all cases: unprocessed API vs. co-processed prodrug/HPMC batches from Example 1
[1] = Bulk density of powder
[2] = Powder flow
[3] = Tapped density of powder

COc1cnc(-n2cnc(C)n2)c2c1c(C(=O)C(=O)N1CCN(C(=O)c3ccccc3)CC1)cn2COP(=O)(O)O [API, 1-benzoyl-4-[2-[4-methoxy-7-(3-methyl-1H-1,2,4-triazol-1-yl)-1-[(phosphonooxy)methyl]-1H-pyrrolo[2,3-c]pyridin-3-yl]-1,2-dioxoethyl]-piperazine]
Bulk Density [1]: 0.13 g/cc
Flow [2]: incomplete
Volumetric Flow [2]: incomplete
Tapped Density [3]: 0.23 g/cc
